Test results as given in US20170360073A1, “OPTIMIZED NUTRIENT FATTY ACID COMPOSITION” (priority 2014, published 2017).

Test system: patients with menopausal symptoms
Assay: Case study: menopausal symptoms, transdermal estriol in oil (Example 15)
Type: in vivo, human
Details: after 15 and 30 days; one patient each: estriol 1 mg oral tablet daily; example 7 oil 0.5 ml twice daily on skin (0.25 mg estriol daily); oral multivitamin and minerals tablet
Experimental: Three patients with menopausal symptoms were taken for study. The patients were divided into three groups. First patient was advised to take orally estriol one mg as tablet daily. Second patient was advised to apply over skin of thighs and abdomen 0.5 ml twice daily medicated optimized nutrient oil prepared by a process as given in example-7 which contains 0.25 mg estriol/ml, so that 0.25 mg estriol is absorbed daily by the body through skin. Third patient was given oral multivitamin and minerals as tablet.

SMILES: C[C@]12CC[C@@H]3c4ccc(O)cc4CC[C@H]3[C@@H]1C[C@@H](O)[C@@H]2O [estriol]
- hot flushes, mood changes and sleep pattern: improvement in all the three symptoms
